Patent US20250270172A1, “Pyrimidine Derivatives As Modulators of the 5-HT2A Serotonin Receptor Useful For The Treatment of Disorders Related Thereto” (Arena Pharmaceuticals, Inc., priority 2020, published 2025)
Several values for one entry are separate records, joined by “and”; a condition that tells them apart may be missing. Identical values can stand only once. Like-named read-outs stand apart in the source and are kept apart here. Values belong to the compound of their own block, whether it stands above or below them.

Tests used:
[1] = biological target: T1, 5-HT2A (Homo sapiens (Human), UniProt P28223); test: Radioligand binding assay, [^3H]5-HT competition, 5-HT2A; conditions: read-out: 5-HT2A serotonin binding Ki value
T1 sequence (P28223 whole entry): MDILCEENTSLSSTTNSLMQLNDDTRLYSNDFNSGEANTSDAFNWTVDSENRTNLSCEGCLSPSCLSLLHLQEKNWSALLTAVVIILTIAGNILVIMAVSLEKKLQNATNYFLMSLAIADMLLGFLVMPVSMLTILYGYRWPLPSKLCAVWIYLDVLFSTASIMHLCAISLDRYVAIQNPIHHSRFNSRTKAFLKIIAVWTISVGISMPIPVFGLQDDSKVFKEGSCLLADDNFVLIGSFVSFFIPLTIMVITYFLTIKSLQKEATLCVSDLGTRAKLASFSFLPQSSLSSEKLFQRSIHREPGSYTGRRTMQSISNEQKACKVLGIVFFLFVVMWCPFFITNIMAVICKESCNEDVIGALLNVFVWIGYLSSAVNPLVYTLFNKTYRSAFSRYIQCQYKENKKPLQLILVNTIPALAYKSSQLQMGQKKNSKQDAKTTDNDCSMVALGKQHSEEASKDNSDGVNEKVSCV

[2] = biological target: T1, 5-HT2A; test: HTRF IP-One antagonist assay, 5-HT2A; format: cell-based; conditions: HEK293 cells stably expressing receptor, inositol phosphate accumulation, 80 nM 5-HT in Assay Buffer;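 also: clonal line with low receptor density (about 50–70 fmol/mg), 10-point dose-response from 10 µM in 5-fold steps, HTRF detection after 1 hr, triplicate points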
[3] = biological target: 5-HT2B (Homo sapiens (Human), UniProt P41595); test: HTRF IP-One antagonist assay, 5-HT2B; format: cell-based; conditions: HEK293 cells stably expressing receptor, inositol phosphate accumulation, 80 nM 5-HT in Assay Buffer;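 also: clonal HEK293 line with low 5-HT2B expression (estimated 150-200 fmol/mg by radioligand binding), IP-One HTRF readout, 10-point curves from 10 µM in 5-fold steps, triplicate points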
Sequence of 5-HT2B (P41595 whole entry): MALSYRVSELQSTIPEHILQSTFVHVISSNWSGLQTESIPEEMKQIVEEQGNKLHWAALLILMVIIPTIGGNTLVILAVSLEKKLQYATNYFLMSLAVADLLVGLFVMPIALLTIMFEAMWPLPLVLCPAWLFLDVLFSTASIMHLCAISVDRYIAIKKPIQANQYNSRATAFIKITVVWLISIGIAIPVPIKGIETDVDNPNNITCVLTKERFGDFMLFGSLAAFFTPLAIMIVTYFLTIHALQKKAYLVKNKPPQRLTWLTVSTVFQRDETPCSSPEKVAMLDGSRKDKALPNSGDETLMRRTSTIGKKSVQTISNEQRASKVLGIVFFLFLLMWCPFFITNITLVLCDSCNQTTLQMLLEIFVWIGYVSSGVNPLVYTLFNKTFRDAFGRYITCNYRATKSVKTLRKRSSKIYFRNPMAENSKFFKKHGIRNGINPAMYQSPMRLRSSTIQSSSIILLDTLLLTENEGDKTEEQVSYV

[4] = biological target: 5-HT2C (Homo sapiens (Human), UniProt P28335); test: HTRF IP-One antagonist assay, 5-HT2C; format: cell-based; conditions: HEK293 cells stably expressing receptor, inositol phosphate accumulation, 80 nM 5-HT in Assay Buffer;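 also: clonal HEK293 line with low 5-HT2C density (10–20 fmol/mg), HTRF detection of IP-One, 10-point dose curves from 10 µM in 5-fold steps, triplicate points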
Sequence of 5-HT2C (P28335 33-458): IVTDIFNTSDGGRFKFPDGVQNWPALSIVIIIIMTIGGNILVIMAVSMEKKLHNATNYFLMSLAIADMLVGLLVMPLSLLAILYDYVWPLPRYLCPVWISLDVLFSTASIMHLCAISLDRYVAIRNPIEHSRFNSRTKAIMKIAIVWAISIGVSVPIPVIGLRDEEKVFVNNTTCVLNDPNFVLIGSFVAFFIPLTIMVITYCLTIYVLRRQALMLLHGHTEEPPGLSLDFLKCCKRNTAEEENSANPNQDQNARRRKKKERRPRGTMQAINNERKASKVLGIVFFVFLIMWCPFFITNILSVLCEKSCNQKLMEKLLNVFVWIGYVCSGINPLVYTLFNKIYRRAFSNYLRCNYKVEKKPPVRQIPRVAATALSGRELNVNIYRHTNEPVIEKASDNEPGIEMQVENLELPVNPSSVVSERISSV

[5] = [^3H]5-HT radioligand, membranes of HEK293 cells expressing recombinant 5-HT2A, Ki from IC50 by Cheng-Prusoff

Structure (SMILES): CCOC1CC1C(=O)Nc1ccc(OCCN2CCCC2)c(-c2c(C)ncnc2C)c1 (stereo not shown) [Compound 291, N-(3-(4,6-dimethylpyrimidin-5-yl)-4-(2-(pyrrolidin-1-yl)ethoxy)phenyl)-2-ethoxycyclopropane-1-carboxamide]
- Ki [1, 5]: 5.04 nM and 15.5 nM
- IC50 [2]: 9.75 nM
- IC50 [3]: 100 µM
- IC50 [4]: 100 µM

Structure (SMILES): Cc1ncnc(C)c1-c1cc(NC(=O)C2(CF)CC2)ccc1OCCN1CCCC1 [Compound 293, N-(3-(4,6-dimethylpyrimidin-5-yl)-4-(2-(pyrrolidin-1-yl)ethoxy)phenyl)-1-(fluoromethyl)cyclopropane-1-carboxamide]
- Ki [1, 5]: 8.56 nM
- IC50 [2]: 15.9 nM
- IC50 [3]: 9.37 µM
- IC50 [4]: 100 µM

Structure (SMILES): Cc1ncnc(C)c1-c1cc(NC(=O)c2ccnn2C)ccc1OCCN1CCC1 [Compound 304, N-[4-[2-(azetidin-1-yl)ethoxy]-3-(4,6-dimethylpyrimidin-5-yl)phenyl]-2-methyl-pyrazole-3-carboxamide]
- Ki [1, 5]: 7.25 nM
- IC50 [2]: 8.86 nM
- IC50 [3]: 100 µM
- IC50 [4]: 100 µM

Structure (SMILES): Cc1ncnc(C)c1-c1cc(NC(=O)C2(F)CC2)ccc1OCCN1CCC1 [Compound 305, N-(4-(2-(azetidin-1-yl)ethoxy)-3-(4,6-dimethylpyrimidin-5-yl)phenyl)-1-fluorocyclopropane-1-carboxamide]
- Ki [1, 5]: 2.61 nM
- IC50 [2]: 4.44 nM
- IC50 [3]: 100 µM
- IC50 [4]: 100 µM

- Ki [1]: 5.89 nM
- IC50 [2]: 9.84 nM
- IC50 [3]: ≥ 100 µM
- IC50 [4]: 100 µM
Structure (SMILES): Cc1ncsc1CC(=O)Nc1ccc(OCCN2CCC2)c(-c2c(C)ncnc2C)c1 [Compound 307, N-(4-(2-(azetidin-1-yl)ethoxy)-3-(4,6-dimethylpyrimidin-5-yl)phenyl)-2-(4-methylthiazol-5-yl)acetamide]

Structure (SMILES): Cc1ncnc(C)c1-c1cc(NC(=O)c2ccccc2)ccc1OCCN1CCC1 [Compound 308, N-(4-(2-(azetidin-1-yl)ethoxy)-3-(4,6-dimethylpyrimidin-5-yl)phenyl)benzamide]
- Ki [1, 5]: 3.28 nM
- IC50 [2]: 14.7 nM
- IC50 [3]: 100 µM
- IC50 [4]: 100 µM

Structure (SMILES): Cc1ncnc(C)c1-c1cc(NC(=O)c2ccc(F)cc2)ccc1OCCN1CCC1 [Compound 309, N-(4-(2-(azetidin-1-yl)ethoxy)-3-(4,6-dimethylpyrimidin-5-yl)phenyl)-4-fluorobenzamide]
- Ki [1, 5]: 1.71 nM
- IC50 [2]: 6.32 nM
- IC50 [3]: 0.806 µM
- IC50 [4]: 100 µM

Structure (SMILES): COc1cccc(C(=O)Nc2ccc(OCCN3CCC3)c(-c3c(C)ncnc3C)c2)c1 [Compound 310, N-(4-(2-(azetidin-1-yl)ethoxy)-3-(4,6-dimethylpyrimidin-5-yl)phenyl)-3-methoxybenzamide]
- Ki [1, 5]: 1.58 nM
- IC50 [2]: 3.31 nM
- IC50 [3]: 1.91 µM
- IC50 [4]: 100 µM

Structure (SMILES): Cc1ncnc(C)c1-c1cc(NC(=O)Cc2cncc(F)c2)ccc1OCCN1CCC1 [Compound 314, N-(4-(2-(azetidin-1-yl)ethoxy)-3-(4,6-dimethylpyrimidin-5-yl)phenyl)-2-(5-fluoropyridin-3-yl)acetamide]
- Ki [1, 5]: 5.42 nM
- IC50 [2]: 15.3 nM
- IC50 [3]: 100 µM
- IC50 [4]: 100 µM

Structure (SMILES): Cc1ncnc(C)c1-c1cc(NC(=O)c2c(F)cnn2C)ccc1OCCN1CCC1 [Compound 316, N-(4-(2-(azetidin-1-yl)ethoxy)-3-(4,6-dimethylpyrimidin-5-yl)phenyl)-4-fluoro-1-methyl-1H-pyrazole-5-carboxamide]
- Ki [1, 5]: 4.98 nM
- IC50 [2]: 6.99 nM
- IC50 [3]: 3.19 µM
- IC50 [4]: 100 µM

Structure (SMILES): COc1ccc(C(=O)Nc2ccc(OCCN3CCC3)c(-c3c(C)ncnc3C)c2)cc1 [Compound 318, N-(4-(2-(azetidin-1-yl)ethoxy)-3-(4,6-dimethylpyrimidin-5-yl)phenyl)-4-methoxybenzamide]
- Ki [1, 5]: 4.09 nM
- IC50 [2]: 16.8 nM
- IC50 [3]: 4.5 µM
- IC50 [4]: 100 µM

Structure (SMILES): Cc1ncnc(C)c1-c1cc(NC(=O)c2ccccc2F)ccc1OCCN1CCC1 [Compound 319, N-(4-(2-(azetidin-1-yl)ethoxy)-3-(4,6-dimethylpyrimidin-5-yl)phenyl)-2-fluorobenzamide]
- Ki [1, 5]: 3.62 nM
- IC50 [2]: 14.3 nM
- IC50 [3]: 2.36 µM
- IC50 [4]: 100 µM

Structure (SMILES): Cc1ncnc(C)c1-c1cc(NC(=O)c2cccc(C#N)c2)ccc1OCCN1CCC1 [Compound 325, N-(4-(2-(azetidin-1-yl)ethoxy)-3-(4,6-dimethylpyrimidin-5-yl)phenyl)-3-cyanobenzamide]
- Ki [1, 5]: 1.7 nM
- IC50 [2]: 8.54 nM
- IC50 [3]: 2.89 µM
- IC50 [4]: 100 µM

Structure (SMILES): Cc1ncnc(C)c1-c1cc(NC(=O)C2CC2)ccc1OCCN1CCC1 [Compound 344, N-(4-(2-(azetidin-1-yl)ethoxy)-3-(4,6-dimethylpyrimidin-5-yl)phenyl)cyclopropanecarboxamide]
- Ki [1, 5]: 6.53 nM
- IC50 [2]: 10.2 nM
- IC50 [3]: 1.21 µM
- IC50 [4]: 100 µM

Structure (SMILES): COC1CCN(CCOc2ccc(NC(=O)C3CC3)cc2-c2c(C)ncnc2C)CC1 [Compound 351, N-(3-(4,6-dimethylpyrimidin-5-yl)-4-(2-(4-methoxypiperidin-1-yl)ethoxy)phenyl)cyclopropanecarboxamide]
- Ki [1, 5]: 4.56 nM
- IC50 [2]: 7.03 nM
- IC50 [3]: 100 µM
- IC50 [4]: 100 µM

Structure (SMILES): CO[C@@H]1CCN(CCOc2ccc(NC(=O)C3CC3)cc2-c2c(C)ncnc2C)C1 [Compound 353, (R)—N-(3-(4,6-dimethylpyrimidin-5-yl)-4-(2-(3-methoxypyrrolidin-1-yl)ethoxy)phenyl)cyclopropanecarboxamide]
- Ki [1, 5]: 4.06 nM
- IC50 [2]: 24.8 nM
- IC50 [3]: 100 µM
- IC50 [4]: 100 µM

Structure (SMILES): COCCNCCOc1ccc(NC(=O)C2CC2)cc1-c1c(C)ncnc1C [Compound 361, N-(3-(4,6-dimethylpyrimidin-5-yl)-4-(2-((2-methoxyethyl)amino)ethoxy)phenyl)cyclopropanecarboxamide]
- Ki [1, 5]: 4.33 nM
- IC50 [2]: 9.27 nM
- IC50 [3]: 100 µM
- IC50 [4]: 100 µM

Structure (SMILES): Cc1ncnc(C)c1-c1cc(NC(=O)C2CC2)ccc1OC1CNC1 [Compound 396, N-[4-(azetidin-3-yloxy)-3-(4,6-dimethylpyrimidin-5-yl)phenyl]cyclopropanecarboxamide]
- Ki [1, 5]: 5.93 nM
- IC50 [2]: 50.5 nM
- IC50 [3]: 100 µM
- IC50 [4]: 100 µM

Structure (SMILES): Cc1ncnc(C)c1-c1cc(NC(=O)C2(F)CC2)ccc1OC1CNC1 [Compound 398, N-(4-(azetidin-3-yloxy)-3-(4,6-dimethylpyrimidin-5-yl)phenyl)-1-fluorocyclopropane-1-carboxamide]
- Ki [1, 5]: 6.26 nM
- IC50 [2]: 33.8 nM
- IC50 [3]: 100 µM
- IC50 [4]: 100 µM

Structure (SMILES): Cc1ncnc(C)c1-c1cc(NC(=O)c2ccccc2)ccc1OC1CNC1 [Compound 400, N-(4-(azetidin-3-yloxy)-3-(4,6-dimethylpyrimidin-5-yl)phenyl)benzamide]
- Ki [1, 5]: 4.2 nM
- IC50 [2]: 38.6 nM
- IC50 [3]: 100 µM
- IC50 [4]: 100 µM

Structure (SMILES): Cc1ncnc(C)c1-c1cc(NC(=O)[C@@H]2C[C@H]2F)ccc1O[C@@H]1CCCNC1 [Compound 409, (1S,2R)—N-(3-(4,6-dimethylpyrimidin-5-yl)-4-(((R)-piperidin-3-yl)oxy)phenyl)-2-fluorocyclopropane-1-carboxamide]
- Ki [1, 5]: 6.67 nM
- IC50 [2]: 18.9 nM
- IC50 [3]: 2.92 µM
- IC50 [4]: 100 µM

Structure (SMILES): Cc1ncnc(C)c1-c1cc(NC(=O)C2(F)CC2)ccc1OC[C@H]1CCCCN1 [Compound 438, N-[3-(4,6-dimethylpyrimidin-5-yl)-4-[[(2R)-2-piperidyl]methoxy]phenyl]-1-fluoro-cyclopropanecarboxamide]
- Ki [1, 5]: 9.18 nM
- IC50 [2]: 16.4 nM
- IC50 [3]: 100 µM
- IC50 [4]: 100 µM

Structure (SMILES): Cc1ncnc(C)c1-c1cc(NC(=O)C2(F)CCC2)ccc1OC[C@H]1CCCCN1 [Compound 444, (R)—N-(3-(4,6-dimethylpyrimidin-5-yl)-4-(piperidin-2-ylmethoxy)phenyl)-1-fluorocyclobutane-1-carboxamide]
- Ki [1, 5]: 4.93 nM
- IC50 [2]: 11.8 nM
- IC50 [3]: 100 µM
- IC50 [4]: 100 µM

Structure (SMILES): CCOC1CC1C(=O)Nc1ccc(OC[C@H]2CCCCN2)c(-c2c(C)ncnc2C)c1 (stereo partly drawn) [Compound 447, N-(3-(4,6-dimethylpyrimidin-5-yl)-4-(((R)-piperidin-2-yl)methoxy)phenyl)-2-ethoxycyclopropane-1-carboxamide]
- Ki [1, 5]: 7.08 nM and 19.6 nM
- IC50 [2]: 9.05 nM
- IC50 [3]: 100 µM
- IC50 [4]: 100 µM

Structure (SMILES): COCCNCCOc1ccc(NC(=O)C2(F)CC2)cc1-c1c(C)ncnc1C [Compound 453, N-(3-(4,6-dimethylpyrimidin-5-yl)-4-(2-((2-methoxyethyl)amino)ethoxy)phenyl)-1-fluorocyclopropane-1-carboxamide]
- Ki [1, 5]: 4.76 nM
- IC50 [2]: 4.84 nM
- IC50 [3]: 100 µM
- IC50 [4]: 100 µM
